# From patent publication US20080051387A1, “TETRAHYDROPYRIDO[3,4-D]PYRIMIDINES AND RELATED ANALOGUES” (priority 2006, published 2008)
# Target: T1, chimeric human H3 receptor (Homo sapiens, UniProt Q9Y5N1)
# T1 construct: rat Galpha-i2 (Gnai2, rat); made in house; host or cells: Sf9 insect cells (baculovirus); P2 membranes
# Assay: Chimeric human H3 receptor screening GTP binding assay (inhibition of histamine-stimulated GTP-gamma35S binding, Example 8)
# Assay type: biochemical
# Details: 1 h; assay described in Example 8; symbol "!" in column headed Ki; read-out: Ki ("!": percent inhibition of agonist-induced GTP-gammaS binding to H3)
# Procedure, shortened: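 Sf9 membranes co-expressing chimeric human H3 receptor and heterotrimeric G-protein (35 μg protein) incubated 60 min at room temperature with 4 μM compound, 1 μM histamine and 125 pM GTP-gamma35S in pH 7.4 buffer with 10 μM GDP. Filter-bound radioactivity, nonspecific (10 μM GTP-gammaS) subtracted, reported as % inhibition of histamine signal.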
# T1 sequence (Q9Y5N1 with tags, fused parts or gaps): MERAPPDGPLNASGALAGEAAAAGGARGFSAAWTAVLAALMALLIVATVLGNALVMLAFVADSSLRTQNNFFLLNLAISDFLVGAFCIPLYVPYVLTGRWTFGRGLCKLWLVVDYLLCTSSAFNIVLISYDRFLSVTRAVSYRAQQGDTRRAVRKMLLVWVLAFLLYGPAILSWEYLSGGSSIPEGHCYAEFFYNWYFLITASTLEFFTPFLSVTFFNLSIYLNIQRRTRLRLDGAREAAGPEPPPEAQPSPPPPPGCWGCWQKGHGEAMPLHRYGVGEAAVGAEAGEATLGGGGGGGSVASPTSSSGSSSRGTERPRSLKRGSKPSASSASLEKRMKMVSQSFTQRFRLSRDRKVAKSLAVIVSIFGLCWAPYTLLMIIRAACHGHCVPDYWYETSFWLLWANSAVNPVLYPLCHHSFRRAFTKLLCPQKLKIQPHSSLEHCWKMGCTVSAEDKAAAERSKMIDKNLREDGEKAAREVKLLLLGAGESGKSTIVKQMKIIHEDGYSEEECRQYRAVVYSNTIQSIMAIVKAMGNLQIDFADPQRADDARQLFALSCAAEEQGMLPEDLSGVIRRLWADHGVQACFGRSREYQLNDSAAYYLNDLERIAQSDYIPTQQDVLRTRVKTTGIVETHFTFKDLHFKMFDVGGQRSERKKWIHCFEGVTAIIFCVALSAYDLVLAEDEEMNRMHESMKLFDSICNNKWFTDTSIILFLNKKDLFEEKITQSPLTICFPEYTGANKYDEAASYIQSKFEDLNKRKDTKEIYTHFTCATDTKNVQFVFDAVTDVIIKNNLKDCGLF
row,SMILES,inhibition at 4 µM [%]
1,"COc1cc(/C=C/C(=O)N2CCc3cnc(N4CCN(C5CCC5)CC4)nc3CC2)cc(OC)c1OC [Compound 566, 2-(4-cyclobutylpiperazin-1-yl)-7-[(2E)-3-(3,4,5-trimethoxyphenyl)prop-2-enoyl]-6,7,8,9-tetrahydro-5H-pyrimido[4,5-d]azepine]",≥ 90
2,"O=C(/C=C/c1ccc2c(c1)OCO2)N1CCc2cnc(N3CCN(C4CCC4)CC3)nc2CC1 [Compound 567, 7-[(2E)-3-(1,3-benzodioxol-5-yl)prop-2-enoyl]-2-(4-cyclobutylpiperazin-1-yl)-6,7,8,9-tetrahydro-5H-pyrimido[4,5-d]azepine]",≥ 90
3,"CCOc1ccccc1/C=C/C(=O)N1CCc2cnc(N3CCN(C4CCC4)CC3)nc2CC1 [Compound 569, 2-(4-cyclobutylpiperazin-1-yl)-7-[(2E)-3-(2-ethoxyphenyl)prop-2-enoyl]-6,7,8,9-tetrahydro-5H-pyrimido[4,5-d]azepine]",≥ 90
4,"COc1ccc(/C=C/C(=O)N2CCc3cnc(N4CCN(C5CCC5)CC4)nc3CC2)c(OC)c1OC [Compound 571, 2-(4-cyclobutylpiperazin-1-yl)-7-[(2E)-3-(2,3,4-trimethoxyphenyl)prop-2-enoyl]-6,7,8,9-tetrahydro-5H-pyrimido[4,5-d]azepine]",≥ 90
5,"COc1cc(OC)c(OC)cc1/C=C/C(=O)N1CCc2cnc(N3CCN(C4CCC4)CC3)nc2CC1 [Compound 575, 2-(4-cyclobutylpiperazin-1-yl)-7-[(2E)-3-(2,4,5-trimethoxyphenyl)prop-2-enoyl]-6,7,8,9-tetrahydro-5H-pyrimido[4,5-d]azepine]",≥ 90
6,"Cc1ccc(C)c(/C=C/C(=O)N2CCc3cnc(N4CCN(C5CCC5)CC4)nc3CC2)c1 [Compound 577, 2-(4-cyclobutylpiperazin-1-yl)-7-[(2E)-3-(2,5-dimethylphenyl)prop-2-enoyl]-6,7,8,9-tetrahydro-5H-pyrimido[4,5-d]azepine]",≥ 90
7,"O=C(/C=C/c1cccc2ccccc12)N1CCc2cnc(N3CCN(C4CCC4)CC3)nc2CC1 [Compound 578, 2-(4-cyclobutylpiperazin-1-yl)-7-[(2E)-3-(1-naphthyl)prop-2-enoyl]-6,7,8,9-tetrahydro-5H-pyrimido[4,5-d]azepine]",≥ 90
8,"O=C(/C=C/c1ccccc1C(F)(F)F)N1CCc2cnc(N3CCN(C4CCC4)CC3)nc2CC1 [Compound 580, 2-(4-cyclobutylpiperazin-1-yl)-7-[(2E)-3-[2-(trifluoromethyl)phenyl]prop-2-enoyl]-6,7,8,9-tetrahydro-5H-pyrimido[4,5-d]azepine]",≥ 90

# More lines, now with the values ahead:
row,inhibition at 4 µM [%],SMILES
1,≥ 90,"COc1cccc(/C=C/C(=O)N2CCc3cnc(N4CCN(C5CCC5)CC4)nc3CC2)c1 [Compound 564, 2-(4-cyclobutylpiperazin-1-yl)-7-[(2E)-3-(3-methoxyphenyl)prop-2-enoyl]-6,7,8,9-tetrahydro-5H-pyrimido[4,5-d]azepine]"
2,≥ 90,"COc1cc(/C=C/C(=O)N2CCc3cnc(N4CCN(C5CCC5)CC4)nc3CC2)cc(OC)c1 [Compound 565, 2-(4-cyclobutylpiperazin-1-yl)-7-[(2E)-3-(3,5-dimethoxyphenyl)prop-2-enoyl]-6,7,8,9-tetrahydro-5H-pyrimido[4,5-d]azepine]"
3,≥ 90,"COc1ccccc1/C=C/C(=O)N1CCc2cnc(N3CCN(C4CCC4)CC3)nc2CC1 [Compound 568, 2-(4-cyclobutylpiperazin-1-yl)-7-[(2E)-3-(2-methoxyphenyl)prop-2-enoyl]-6,7,8,9-tetrahydro-5H-pyrimido[4,5-d]azepine]"
4,≥ 90,"COc1ccc(/C=C/C(=O)N2CCc3cnc(N4CCN(C5CCC5)CC4)nc3CC2)c(OC)c1 [Compound 570, 2-(4-cyclobutylpiperazin-1-yl)-7-[(2E)-3-(2,4-dimethoxyphenyl)prop-2-enoyl]-6,7,8,9-tetrahydro-5H-pyrimido[4,5-d]azepine]"
5,≥ 90,"Cc1ccccc1/C=C/C(=O)N1CCc2cnc(N3CCN(C4CCC4)CC3)nc2CC1 [Compound 572, 2-(4-cyclobutylpiperazin-1-yl)-7-[(2E)-3-(2-methylphenyl)prop-2-enoyl]-6,7,8,9-tetrahydro-5H-pyrimido[4,5-d]azepine]"
6,≥ 90,"COc1cccc(/C=C/C(=O)N2CCc3cnc(N4CCN(C5CCC5)CC4)nc3CC2)c1OC [Compound 573, 2-(4-cyclobutylpiperazin-1-yl)-7-[(2E)-3-(2,3-dimethoxyphenyl)prop-2-enoyl]-6,7,8,9-tetrahydro-5H-pyrimido[4,5-d]azepine]"
7,≥ 90,"COc1ccc(OC)c(/C=C/C(=O)N2CCc3cnc(N4CCN(C5CCC5)CC4)nc3CC2)c1 [Compound 574, 2-(4-cyclobutylpiperazin-1-yl)-7-[(2E)-3-(2,5-dimethoxyphenyl)prop-2-enoyl]-6,7,8,9-tetrahydro-5H-pyrimido[4,5-d]azepine]"
8,≥ 90,"COc1ccc(Br)cc1/C=C/C(=O)N1CCc2cnc(N3CCN(C4CCC4)CC3)nc2CC1 [Compound 576, 7-[(2E)-3-(5-bromo-2-methoxyphenyl)prop-2-enoyl]-2-(4-cyclobutylpiperazin-1-yl)-6,7,8,9-tetrahydro-5H-pyrimido[4,5-d]azepine]"
9,≥ 90,"O=C(/C=C/c1ccccc1Cl)N1CCc2cnc(N3CCN(C4CCC4)CC3)nc2CC1 [Compound 579, 7-[(2E)-3-(2-chlorophenyl)prop-2-enoyl]-2-(4-cyclobutylpiperazin-1-yl)-6,7,8,9-tetrahydro-5H-pyrimido[4,5-d]azepine]"

# Same assay, conditions: 1 h; assay of Example 8; symbol "!" in column headed Ki; read-out: percent inhibition of agonist-induced GTP-gammaS binding to H3
row,inhibition at 4 µM [%],SMILES
1,≥ 90,"O=C(/C=C/c1ccc(Cl)cc1Cl)N1CCc2cnc(N3CCN(C4CCC4)CC3)nc2CC1 [Compound 581, 2-(4-cyclobutylpiperazin-1-yl)-7-[(2E)-3-(2,4-dichlorophenyl)prop-2-enoyl]-6,7,8,9-tetrahydro-5H-pyrimido[4,5-d]azepine]"
2,≥ 90,"O=C(/C=C/c1ccccc1Br)N1CCc2cnc(N3CCN(C4CCC4)CC3)nc2CC1 [Compound 582, 7-[(2E)-3-(2-bromophenyl)prop-2-enoyl]-2-(4-cyclobutylpiperazin-1-yl)-6,7,8,9-tetrahydro-5H-pyrimido[4,5-d]azepine]"
3,≥ 90,"O=C(/C=C/c1c(Cl)cccc1Cl)N1CCc2cnc(N3CCN(C4CCC4)CC3)nc2CC1 [Compound 583, 2-(4-cyclobutylpiperazin-1-yl)-7-[(2E)-3-(2,6-dichlorophenyl)prop-2-enoyl]-6,7,8,9-tetrahydro-5H-pyrimido[4,5-d]azepine]"
4,≥ 90,"O=C(/C=C/c1ccc(F)cc1Cl)N1CCc2cnc(N3CCN(C4CCC4)CC3)nc2CC1 [Compound 584, 7-[(2E)-3-(2-chloro-4-fluorophenyl)prop-2-enoyl]-2-(4-cyclobutylpiperazin-1-yl)-6,7,8,9-tetrahydro-5H-pyrimido[4,5-d]azepine]"
5,≥ 90,"O=C(/C=C/c1c(F)cccc1Cl)N1CCc2cnc(N3CCN(C4CCC4)CC3)nc2CC1 [Compound 585, 7-[(2E)-3-(2-chloro-6-fluorophenyl)prop-2-enoyl]-2-(4-cyclobutylpiperazin-1-yl)-6,7,8,9-tetrahydro-5H-pyrimido[4,5-d]azepine]"
6,≥ 90,"COc1ccc(/C=C/C(=O)N2CCc3cnc(N4CCN(C5CCC5)CC4)nc3CC2)c(Cl)c1OC [Compound 586, 7-[(2E)-3-(2-chloro-3,4-dimethoxyphenyl)prop-2-enoyl]-2-(4-cyclobutylpiperazin-1-yl)-6,7,8,9-tetrahydro-5H-pyrimido[4,5-d]azepine]"
7,≥ 90,"CCOc1ccc(Br)cc1/C=C/C(=O)N1CCc2cnc(N3CCN(C4CCC4)CC3)nc2CC1 [Compound 587, 7-[(2E)-3-(5-bromo-2-ethoxyphenyl)prop-2-enoyl]-2-(4-cyclobutylpiperazin-1-yl)-6,7,8,9-tetrahydro-5H-pyrimido[4,5-d]azepine]"
8,≥ 90,"COc1cc(Br)c(/C=C/C(=O)N2CCc3cnc(N4CCN(C5CCC5)CC4)nc3CC2)cc1OC [Compound 588, 7-[(2E)-3-(2-bromo-4,5-dimethoxyphenyl)prop-2-enoyl]-2-(4-cyclobutylpiperazin-1-yl)-6,7,8,9-tetrahydro-5H-pyrimido[4,5-d]azepine]"
9,≥ 90,"O=C(/C=C/c1cc2c(cc1Br)OCO2)N1CCc2cnc(N3CCN(C4CCC4)CC3)nc2CC1 [Compound 589, 7-[(2E)-3-(6-bromo-1,3-benzodioxol-5-yl)prop-2-enoyl]-2-(4-cyclobutylpiperazin-1-yl)-6,7,8,9-tetrahydro-5H-pyrimido[4,5-d]azepine]"

# Same assay, conditions: symbol ! in Ki; test compound 4 μM, 1 μM histamine; read-out: percent inhibition of agonist-induced GTP-gammaS binding to H3
row,inhibition at 4 µM [%],SMILES
1,≥ 90,"Fc1ccccc1CN1CCc2nc(N3CCN(C4CCC4)CC3)ncc2C1 [Compound 611, 2-(4-cyclobutylpiperazin-1-yl)-6-(2-fluorobenzyl)-5,6,7,8-tetrahydropyrido[4,3-d]pyrimidine]"
2,≥ 90,"Fc1cccc(CN2CCc3nc(N4CCN(C5CCC5)CC4)ncc3C2)c1 [Compound 612, 2-(4-cyclobutylpiperazin-1-yl)-6-(3-fluorobenzyl)-5,6,7,8-tetrahydropyrido[4,3-d]pyrimidine]"
3,≥ 90,"Fc1ccc(CN2CCc3nc(N4CCN(C5CCC5)CC4)ncc3C2)cc1 [Compound 613, 2-(4-cyclobutylpiperazin-1-yl)-6-(4-fluorobenzyl)-5,6,7,8-tetrahydropyrido[4,3-d]pyrimidine]"
4,≥ 90,"Cc1cccc(CN2CCc3nc(N4CCN(C5CCC5)CC4)ncc3C2)c1 [Compound 614, 2-(4-cyclobutylpiperazin-1-yl)-6-(3-methylbenzyl)-5,6,7,8-tetrahydropyrido[4,3-d]pyrimidine]"
